Entries after “also recorded” stand apart in the source; their conditions may differ.
Legend:
[1] = test system: MCF-7 cells; assay: Clonogenic assay in agar after monolayer culture; assay type: cell-based, human; settings: MCF-7, 7 days monolayer then 14 days agar
Method: FIG. 3 is a graphical representation showing clonogenicity of MCF-7M cells. Following suspension culture MCF-7M cell viability was measured by agar culture. Cells were plated in agar with the indicated concentrations of each of the growth factors. After 14 days culture colonies of cells were counted. Cell numbers reported here are the results of 3 experiments, each performed in triplicate, and are expressed according to the number of cells that went into suspension culture.
FIG. 17 is a graphical representation showing clonogenicity of MCF-7 cells after 1 week in suspension culture. Following suspension culture clonogenicity of MCF-7 cells was assayed in agar culture. Cells were plated in agar with the indicated growth factor and maintained at 37° C0 in a humidified incubator with 5% CO2 in air. After 14 days colonies of cells were counted. Results are from 9 experiments using IL-6, LIF and OSM, and 5 experiments using CNTF and IL-11. Each experiment was performed in triplicate, and colony numbers are expressed as a percentage of untreated controls.
Clonogenic potential of cells following monolayer culture was assessed in a semi-solid culture medium. Cells were cultured in triplicate in 35 mm Petri dishes containing 1 ml Iscove's modified Dulbecco's medium (IMDM) supplemented with 25% (v/v) (v/v) BCS, 0.3% (w/v) agar with final concentration of growth factor as outlined above, and with 200 cells per ml for control cultures Cultures were maintained at 37° C. in a humidified incubator with 5% (v/v) CO2 in air. After 14 days, colonies were enumerated using a dissecting microscope. A colony was defined as a clone of greater than 40 cells. All cultures were performed in triplicate.

[2] = test system: BT-549 cells; assay: Proliferation of BT-549 cells in culture, viable cell count; assay type: cell-based, human; settings: for effect on cell proliferation (in words): BT-549
Method: FIGS 5A and B are graphical representations of BT-549 cells in liquid culture. 10^4 BT-549 cells were cultured in 500 μl RPMI/10% (v/v) BCS containing the relevant concentration of each of the growth factors (OSM, IL-11 and IL-6). After 10 days, culture viable cells were counted using a hemacytometer. Cell numbers reported here in the two graphs are the results of 1 experiment performed in triplicate.
FIG. 18 is a graphical representation showing BT-549 cells after 10 days in suspension culture. 10^4BT-549 cells were cultured in 500 μl RPMI/10% (v/v) BCS with the indicated growth factor. After 10 days culture viable cells were counted using a hemacytometer. Results are from 6 experiments, each performed in triplicate.
(§1) Proliferation of the cell lines was measured in monolayer culture in 24 well Costar cluster plates. Cells were plated at an initial density of 10 000 cells/ml and cultured in 500 μl RPMI-1640 supplemented with 10% (v/v) (v/v) BCS and with each growth factor as indicated (LIF, 1000 U/ml; IL-6, 100 ng/ml; OSM, 10 ng/ml; CNTF, 10 ng/ml; IL-11, 100 ng/ml). These concentrations are maximally active in other systems (Nandurkar et al., 1996; Hilton et al., 1994; Zhang et al., 1994; Tanigawa et al., 1995). After 7 or 10 days at 37° C. in a fully humidified atmosphere containing 10% (v/v) CO2 in air, cells were trypsinised and counted using a haemocytometer and an inverted microscope. Cell viability was assessed using eosin exclusion. Results were expressed as a percentage of the corresponding untreated control value for that experiment.

[3] = test system: MDA-MB-231 cells; assay: Proliferation of MDA-MB-231 cells in culture, viable cell count; assay type: cell-based, human
Method: FIG. 19 is a graphical representation showing MDA-MB-231 cells after 7 days in suspension culture. 10^4MDA-MB-231 cells were cultured in 500 μl RPMI/10% (v/v) BCS with the indicated growth factor. After 7 days viable cells were counted using a hemacytometer. Results are from 8 experiments, each performed in triplicate.
as §1

[4] = test system: T47D; assay: Receptor binding of radioiodinated ligand to T-47D cells; design: species or system human; settings: 125I-ligand, room temperature 60 min
Method: (§2) Receptor binding assays were performed using radioiodinated LIF (^125I-LIF) and OSM (^125I-OSM). The radioiodination of LIF and OSM and binding assays were essentially performed as previously described (Hilton et al., 1991; Hilton and Nicola, 1992). Briefly, 50 μl aliquots containing 1×10^7 cells, suspended in RPMI-1640 medium containing 10% (v/v) BCS, were placed in Falcon tubes with 40 μl of the respective radioiodinated ligand at 1×10^5 cpm per 40 μl, with or without greater than a 40-fold excess of unlabelled ligand. Incubation was carried out at room temperature for 60 min and cells were resuspended and layered over 180 μl of (v/v) BCS. Cell associated and free radioiodinated ligand were separated by centrifugation. The pellet and supernatant were subsequently counted in a γ-counter. Specific binding was estimated by subtraction of non specific binding from binding with ^125I-ligand (total binding). Number of cell surface receptors and dissociation constant were calculated by Scatchard analysis.

[5] = test system: MDA-MB-231 cell line; assay: Receptor binding of radioiodinated ligand to MDA-MB-231 cells, Scatchard analysis; design: species or system human; settings: for specific binding(cpm)/10^6 cells: MDA-MB-231, 125I-ligand, room temperature 60 min
Method: (§3) FIG. 20 is a graphical representation showing Scatchard analyses of the saturation isotherms of LIF and OSM binding to breast cancer cell lines. Cells were incubated with various concentrations of labelled or unlabelled ligand in the presence or absence of a 10-100 fold excess of unlabelled ligand. After 18 hr on ice, bound and free ligand were separated by centrifugation through bovine calf serum. Bound and free ^125I-ligand was quantitated in a γ-counter and the data was depicted as a Scatchard transformation. Data was normalised for cell number and is shown as binding to 10^6 cells. A) Saturation isotherm of LIF binding to the MCF-7 cell line. […] B) Saturation isotherm of OSM binding to the MDA-MB-231 cell line.
as §2

[6] = test system: HBL-100 cell line; assay: Receptor binding of radioiodinated ligand to HBL-100 cells, Scatchard analysis; design: species or system human; settings: for specific binding(cpm)/10^6 cells: HBL-100, 125I-ligand, room temperature 60 min
Method: as §3, §2

[7] = test system: MCF-7 cells; assay: Cell morphology after exposure to growth factor; assay type: cell-based, human; settings: MCF-7 / MCF-7M, 6-14 days in growth factor
Text: FIG. 4 is a photographic representation showing morphology of growth factor stimulated MCF-7M cells. Following 1 week in suspension culture containing the various growth factors, MCF-7M cells were cytospun onto slides and subsequently stained with Giemsa.
FIG. 11 is a photographic representation showing cell morphology after exposure to OSM. MCF-7 cells from control cultures and appears of cells after 7 days in OSM. A) Control cells, 10× magnification. B) OSM treated cells, 10× magnification. C) OSM treated cells, 40× magnification. D) OSM treated cells, 100× magnification.
FIG. 15 is a photographic representation showing cell morphology after exposure to OSM. MCF-7 cells from control cultures (Panel A) and appearance of cells after culture for 14 days in OSM (10 ng/ml) (Panel B). MDA-MB-231 cells from control cultures (Panel C) and appearance of cells after culture for 7 days in OSM (Panel D).

Substance | effect on colony formation / clonogenic potential (in words) [1] | effect on cell proliferation (in words) [2] | mean growth inhibition ([2]; BT-549, 7 days) [%] | growth inhibition, up to (maximum observed) ([2]; BT-549, 10 days) | mean growth inhibition ([2]; BT-549, 10 days) [%] | inhibition of proliferation, up to (maximum observed) ([3]; MDA-MB-231, 7 days) | mean inhibition of proliferation ([3]; MDA-MB-231, 7 days, 8 experiments) [%] | specific binding(cpm)/10^6 cells [4] | specific binding(cpm)/10^6 cells [5] | Kd ([5]; MDA-MB-231, Scatchard analysis, read-out: dissociation constant) [nM] | specific binding(cpm)/10^6 cells [6] | reduced binding of radiolabelled ligand compared with the other cell lines ([6]; HBL-100 vs T-47D, MDA-MB-231, MCF-7) | cell morphology (in words) [7] | effect on cellular proliferation (in words) ([3]; MDA-MB-231) | Kd ([6]; HBL-100, Scatchard analysis, read-out: dissociation constant) [nM]
oncostatin M [OSM] | significant reduction of colony formation | inhibition of cell proliferation | 60 | up to 80% | 60 | up to 65% | 54 | 1400 +/− 20 cpm | 2980 +/− 460 cpm | 0.092 | 140 +/− 10 cpm | approximately 10 fold | more abundant cytoplasm and vacuolation; also recorded: more fibroblastic phenotype; also recorded: larger and more vacuolated than control cells | – | –
Leukemia Inhibitory Factor [LIF] | significant reduction of colony formation | failure of BT-549 cells and MDA-MB-231 cells to respond | – | – | – | – | – | 380 +/− 10 cpm | 450 +/− 120 cpm | – | 590 +/− 30 cpm | – | appeared larger than the control cells | did not result in significant effects on cellular proliferation | 0.00749

From US20020106347A1, “Cytokines and their use in treatment and/or prophylaxis of breast cancer” (priority 1995, published 2002)
